Patent publication US10597388B2, “Pyridazinone herbicides” (FMC CORPORATION, priority 2014, dated 2020)

Assays:
Assay in all cases: Test D controlled growth environment herbicide test, pre- and postemergence
Assay type in all cases: in vivo
[1] = tested on: pigweed (Amaranthus retroflexus)
In short: (§1)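 Pre-emergence: seeds sown in silt loam soil were sprayed with compound in a non-phytotoxic solvent mix containing surfactant. Post-emergence: plants at 2 to 18 cm (1- to 4-leaf stage) in peat moss/vermiculite medium got the same formulation. Visual 0–100 rating versus controls after 14 to 21 d.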

[2] = tested on: lambsquarters (Chenopodium album)
In short: as §1

[3] = tested on: wheat, spring (spring wheat, Triticum aestivum)
In short: as §1

[4] = tested on: oat, wild (wild oat, Avena fatua)
In short: as §1

[5] = tested on: windgrass (Apera spica-venti)
In short: as §1

[6] = tested on: field poppy (Papaver rhoeas)
In short: as §1

[7] = tested on: wheat, winter (winter wheat, Triticum aestivum)
In short: as §1

[8] = tested on: barley, winter (winter barley, Hordeum vulgare)
In short: as §1

[9] = tested on: bromegrass, downy (downy bromegrass, Bromus tectorum)
In short: as §1

[10] = tested on: mustard, wild (wild mustard, Sinapis arvensis)
In short: as §1

[11] = tested on: blackgrass (Alopecurus myosuroides)
In short: as §1

[12] = tested on: chamomile (scentless chamomile, Matricaria inodora)
In short: as §1

[13] = tested on: chickweed (common chickweed, Stellaria media)
In short: as §1

[14] = tested on: foxtail, green (green foxtail, Setaria viridis)
In short: as §1

[15] = Postemergence, 31 g ai/ha, scale 0 to 100 (0 no effect, 100 complete control)
[16] = Postemergence, 125 g ai/ha, visual rating on scale 0 (no effect) to 100 (complete control), 14 to 21 d
[17] = Postemergence, 250 g ai/ha, scale 0 to 100 (0 no effect, 100 complete control)
[18] = Preemergence, 125 g ai/ha, scale 0 to 100 (0 no effect, 100 complete control)
[19] = Preemergence, 250 g ai/ha, scale 0 to 100, 0 no effect, 100 complete control
[20] = postemergence, 62 g ai/ha, scale 0 to 100, 0 no effect, 100 complete control
[21] = Preemergence, 62 g ai/ha, scale 0 to 100 (0 no effect, 100 complete control)

Compound: Cc1nn(C)c(=O)c(-c2cccc3ccc(Br)cc23)c1O [Compound 126]
- Pigweed plant response rating [1, 15]: 98
- Plant response rating, Pigweed [1, 16]: 98
- Plant response rating, Pigweed [1, 17]: 98
- Plant response rating (scale of 0 to 100), Pigweed ([1]; Preemergence, 31 g ai/ha): 98
- Plant response rating (scale of 0 to 100), Pigweed ([1]; Preemergence, 62 g ai/ha): 100
- Plant response rating, Pigweed [1, 18]: 100
- Plant response rating, Pigweed [1, 19]: 100
- Plant response rating, Pigweed [1, 20]: 100
- Lambsquarters plant response rating [2, 15]: 90
- Plant response rating, Lambsquarters [2, 16]: 100
- Plant response rating, Lambsquarters [2, 17]: 100
- Plant response rating (scale of 0 to 100), Lambsquarters ([2]; Preemergence, 31 g ai/ha): 100
- Plant response rating (scale of 0 to 100), Lambsquarters ([2]; Preemergence, 62 g ai/ha): 100
- Plant response rating, Lambsquarters [2, 18]: 75
- Plant response rating, Lambsquarters [2, 19]: 100
- Plant response rating, Lambsquarters [2, 20]: 98
- Wheat, Spring plant response rating [3, 15]: 0
- Plant response rating, Wheat, Spring [3, 16]: 0
- Plant response rating, Wheat, Spring [3, 17]: 5
- Plant response rating (scale of 0 to 100), Wheat, Spring ([3]; Preemergence, 31 g ai/ha): 0
- Plant response rating (scale of 0 to 100), Wheat, Spring ([3]; Preemergence, 62 g ai/ha): 0
- Plant response rating, Wheat, Spring [3, 18]: 0
- Plant response rating, Wheat, Spring [3, 19]: 0
- Plant response rating, Wheat, Spring [3, 20]: 0
- Oat, Wild plant response rating [4, 15]: 60
- Plant response rating, Oat, Wild [4, 16]: 80
- Plant response rating, Oat, Wild [4, 17]: 90
- Plant response rating (scale of 0 to 100), Oat, Wild ([4]; Preemergence, 31 g ai/ha): 65
- Plant response rating (scale of 0 to 100), Oat, Wild ([4]; Preemergence, 62 g ai/ha): 70
- Plant response rating, Oat, Wild [4, 18]: 80
- Plant response rating, Oat, Wild [4, 19]: 90
- Plant response rating, Oat, Wild [4, 20]: 70
- Windgrass plant response rating [5, 15]: 0
- Plant response rating, Windgrass [5, 16]: 30
- Plant response rating, Windgrass [5, 17]: 55
- Plant response rating (scale of 0 to 100), Windgrass ([5]; Preemergence, 31 g ai/ha): 25
- Plant response rating (scale of 0 to 100), Windgrass ([5]; Preemergence, 62 g ai/ha): 35
- Plant response rating, Windgrass [5, 18]: 75
- Plant response rating, Windgrass [5, 19]: 85
- Plant response rating, Windgrass [5, 20]: 20
- Field Poppy plant response rating [6, 15]: 25
- Plant response rating, Field Poppy [6, 16]: 75
- Plant response rating, Field Poppy [6, 17]: 85
- Plant response rating (scale of 0 to 100), Field Poppy ([6]; Preemergence, 31 g ai/ha): 30
- Plant response rating (scale of 0 to 100), Field Poppy ([6]; Preemergence, 62 g ai/ha): 45
- Plant response rating, Field Poppy [6, 18]: 90
- Plant response rating, Field Poppy [6, 19]: 95
- Plant response rating, Field Poppy [6, 20]: 55
- Wheat, Winter plant response rating [7, 15]: 0
- Plant response rating, Wheat, Winter [7, 16]: 0
- Plant response rating, Wheat, Winter [7, 17]: 0
- Plant response rating (scale of 0 to 100), Wheat, Winter ([7]; Preemergence, 31 g ai/ha): 0
- Plant response rating (scale of 0 to 100), Wheat, Winter ([7]; Preemergence, 62 g ai/ha): 0
- Plant response rating, Wheat, Winter [7, 18]: 0
- Plant response rating, Wheat, Winter [7, 19]: 0
- Plant response rating, Wheat, Winter [7, 20]: 0
- Barley, Winter plant response rating [8, 15]: 0
- Plant response rating, Barley, Winter [8, 16]: 0
- Plant response rating, Barley, Winter [8, 17]: 0
- Plant response rating (scale of 0 to 100), Barley, Winter ([8]; Preemergence, 31 g ai/ha): 0
- Plant response rating, Barley, Winter [8, 21]: 0
- Plant response rating, Barley, Winter [8, 18]: 0
- Plant response rating, Barley, Winter [8, 19]: 5
- Plant response rating, Barley, Winter [8, 20]: 5
- Bromegrass, Downy plant response rating [9, 15]: 5
- Plant response rating, Bromegrass, Downy [9, 16]: 20
- Plant response rating, Bromegrass, Downy [9, 17]: 25
- Plant response rating (scale of 0 to 100), Bromegrass, Downy ([9]; Preemergence, 31 g ai/ha): 0
- Plant response rating, Bromegrass, Downy [9, 21]: 0
- Plant response rating, Bromegrass, Downy [9, 18]: 20
- Plant response rating, Bromegrass, Downy [9, 19]: 30
- Plant response rating, Bromegrass, Downy [9, 20]: 10
- Mustard, Wild plant response rating [10, 15]: 80
- Plant response rating, Mustard, Wild [10, 16]: 90
- Plant response rating, Mustard, Wild [10, 17]: 100
- Plant response rating (scale of 0 to 100), Mustard, Wild ([10]; Preemergence, 31 g ai/ha): 60
- Plant response rating (scale of 0 to 100), Mustard, Wild ([10]; Preemergence, 62 g ai/ha): 70
- Plant response rating, Mustard, Wild [10, 18]: 70
- Plant response rating, Mustard, Wild [10, 19]: 98
- Plant response rating, Mustard, Wild [10, 20]: 80
- Blackgrass plant response rating [11, 15]: 15
- Plant response rating, Blackgrass [11, 16]: 30
- Plant response rating, Blackgrass [11, 17]: 45
- Plant response rating (scale of 0 to 100), Blackgrass ([11]; Preemergence, 31 g ai/ha): 25
- Plant response rating, Blackgrass [11, 21]: 45
- Plant response rating, Blackgrass [11, 18]: 55
- Plant response rating, Blackgrass [11, 19]: 65
- Plant response rating, Blackgrass [11, 20]: 20
- Chamomile plant response rating [12, 15]: 70
- Plant response rating, Chamomile [12, 16]: 98
- Plant response rating, Chamomile [12, 17]: 100
- Plant response rating (scale of 0 to 100), Chamomile ([12]; Preemergence, 31 g ai/ha): 85
- Plant response rating (scale of 0 to 100), Chamomile ([12]; Preemergence, 62 g ai/ha): 100
- Plant response rating, Chamomile [12, 18]: 100
- Plant response rating, Chamomile [12, 19]: 100
- Plant response rating, Chamomile [12, 20]: 95
- Chickweed plant response rating [13, 15]: 80
- Plant response rating, Chickweed [13, 16]: 100
- Plant response rating, Chickweed [13, 17]: 100
- Plant response rating (scale of 0 to 100), Chickweed ([13]; Preemergence, 31 g ai/ha): 70
- Plant response rating (scale of 0 to 100), Chickweed ([13]; Preemergence, 62 g ai/ha): 98
- Plant response rating, Chickweed [13, 18]: 100
- Plant response rating, Chickweed [13, 19]: 100
- Plant response rating, Chickweed [13, 20]: 98
- Foxtail, Green plant response rating [14, 15]: 10
- Plant response rating, Foxtail, Green [14, 16]: 25
- Plant response rating, Foxtail, Green [14, 17]: 25
- Plant response rating (scale of 0 to 100), Foxtail, Green ([14]; Preemergence, 31 g ai/ha): 20
- Plant response rating (scale of 0 to 100), Foxtail, Green ([14]; Preemergence, 62 g ai/ha): 20
- Plant response rating, Foxtail, Green [14, 18]: 25
- Plant response rating, Foxtail, Green [14, 19]: 45
- Plant response rating, Foxtail, Green [14, 20]: 10
